Experimental data: patent US20130289471A1, “GAS BASED WOUND AND TISSUE THERAPEUTICS” (Virginia Commonwealth University, priority 2008, published 2013)

How the values were obtained:
[1] = Physical properties of F-tert-butylcyclohexane; format: physicochemical; parameters: Kinematic Viscosity: unit not given here
Excerpt: Oxycyte® is based on the perfluorocarbon F-tert-butylcyclohexane, a saturated alicyctic PFC (molecular formula C10F20) and can be used as a PFC composition in the methods and uses described herein. Physical properties of F-tert-butylcyclohexane are as follows: […]

[2] = Lipophilicity of the preferred PFC (statement); format: physicochemical
Excerpt: Being that the PFCs are slightly lipophilic at body temperature and would help in the transport of oxygen into and removal of carbon dioxide from the skin tissue, PFCs can accelerate the healing process of a wound in a tissue.

Structure (SMILES): FC(F)(F)C(C(F)(F)F)(C(F)(F)F)C1(F)C(F)(F)C(F)(F)C(F)(F)C(F)(F)C1(F)F [F-tert-butylcyclohexane, perfluoro-tert-butylcyclohexane]
- Density [1]: 1.97 g/mL
- Kinematic Viscosity [1]: 5.378
- Vapor Pressure @ 25° C. ([1]; 25° C.): 3.8 mmHg
- Vapor Pressure @ 37° C. ([1]; 37° C.): 4.4 mmHg
- lipophilicity ([2]; at body temperature): only slightly lipophilic
- lipophilicity ([2]; at room temperature): not lipophilic
